Assays:
[1] = tested on: luciferase expression in the liver; experiment: In vivo luciferase mRNA expression in liver after tail vein injection of FLuc mRNA lipid nanoparticles; set-up: species or system mice; settings: liver 5 hours after administration, FLuc mRNA LNP 50% cationic lipid/10% DSPC/40% cholesterol/1.5% PEG-DMG; for Liver Luc @ 0.3 mg/kg dose: 0.3 mg mRNA/kg; for Liver Luc @ 1.0 mg/kg dose: 1.0 mg mRNA/kg
Description: […] Lipid nanoparticles (LNPs) were prepared in a total lipid to mRNA weight ratio of about 10:1 to 30:1. mRNA was diluted to 0.15 mg/ml in 10 to 50 ml citrate buffer (pH=4). Using a syringe pump, an ethanolic solution of lipids was mixed with an aqueous mRNA solution in a ratio of approximately 1:5 to 1:3 (volume/volume) at a total flow rate of more than 15 ml/min. Then ethanol was removed and the external buffer replaced by dialysis with PBS. Finally, the lipid nanoparticles were filtered through a 0.2 um pore size sterile filter. The particle size of lipid nanoparticles as determined by quasi-elastic light scattering using Malvern Zetasizer Nano ZS was approximately 65-105 nm in diameter and, in some cases, approximately 75-100 nm in diameter.
The in vivo study was conducted on female mice aged 6-8 weeks and mice aged 8-10 weeks according to guidelines developed by the National Council for Science and Technology. Different doses of mRNA lipid nanoparticles were administered systemically via tail vein injection and the animals euthanized at specific time points (e.g., 5 hours) after dosing. The liver and spleen were collected in pre-weighed tubes, their weights determined, frozen immediately in liquid nitrogen, and stored at −80° C. until use for analysis.
For the liver, approximately 50 mg of liver tissue was cut for analysis and placed in 2 mL FastPrep tubes (MP Biomedicals, Solon OH). ¼″ ceramic beads (MP Biomedicals) and 500 μL of Glo Lysis Buffer-GLB (Promega, Madison WI) were added to each tube and the contents equilibrated to room temperature. The liver tissue was then homogenized for 15 seconds at 2×6.0 m/s using a FastPrep24 instrument (MP Biomedicals). The homogenates were incubated for 5 minutes at room temperature followed by a ¼ dilutions in GLB and evaluated using the SteadyGlo luciferase assay system (Promega). Specifically, 50 μL of diluted tissue homogenate was reacted with 50 μL of SteadyGlo substrate, shaken for 10 seconds, followed by incubation for 5 minutes and quantified using a CentroXS3LB 960 photometer (Berthold Technologies, Germany). The amount of protein was determined using a BCA Protein Assay Kit (Pierce, Rockford IL). Relative luminescence units (RLU) were then normalized to the total ug of the measured protein. To convert RLU into ng luciferase, a standard curve was generated with QuantiLum recombinant luciferase (Promega).
FLuc mRNA (L-6107) from Trilink Biotechnologies will express luciferase protein, and was originally isolated from fireflies (Photinus pyralis). Fluc is commonly used in mammalian cell cultures to measure gene expression and cell viability. It emits biologic light in the presence of the substrate luciferin. This capped and polyadenylated mRNA was completely replaced by 5-methylcytidine and pseudouridine. […]

[2] = Determination of the pKa of cationic lipids in lipid nanoparticles by TNS fluorescence analysis
Description: The pKa of each cationic lipid was determined in lipid nanoparticles using fluorescence analysis based on 2-(p-toluidine)-6-naphthalenesulfonic acid (TNS). As described in Example 3, lipid nanoparticles containing cationic lipids/DSPC/cholesterol/PEG lipids (50/10/40/1.5 mol %) at a concentration of 0.4 mM total lipid in PBS were prepared using an ordered method. 100 μM stock solution was prepared with TNS in distilled water. The vesicles were diluted to contain 24 μM lipid in 2 mL of a buffer solution containing 10 mM HEPES, 10 mM MES, 10 mM acetic acid, 130 mM NaCl, and having a pH of 2.5 to 11. The equal TNS solution was added to produce a final concentration of 1 uM, and after vortex mixing, fluorescence intensity was measured in a SLM Aminco Series 2 luminescence spectrophotometer at room temperature using excitation and emission wavelengths of 321 nm and 445 nm. Fluorescence data were analyzed using a sigmoidal best fit and pKa was measured as the pH producing half-maximal fluorescence intensity.

Molecule | Liver Luc @ 0.3 mg/kg dose [1] | Liver Luc @ 1.0 mg/kg dose [1] | pKa [2]
2-heptylnonyl 8-((2-hydroxyethyl) (6-oxo-6-(undecyloxy)hexyl)amino)octanoate [Compound B] | 134 ± 40 ng luciferase/g liver | 522 ± 210 ng luciferase/g liver | 
CCCCCCCCCCCOC(=O)CCCCCN(CCO)CCCCCCCC(=O)OCC(CCCCCCCC)CCCCCCCC [Compound A, 2-octyldecyl 8-((2-hydroxyethyl) (6-oxo-6-(undecyloxy)hexyl)amino)octanoate] | 156 ± 50 ng luciferase/g liver | 550 ± 200 ng luciferase/g liver | 6.01

Reference: patent publication US20250074867A1, “NOVEL CATIONIC LIPID COMPOUNDS” (Guangzhou Anobri Pharmaceutical Co. Ltd., priority 2021, published 2025)
